Where two headings read alike, the source gives them in different places.
How the values were obtained:
human TLR7 = human TLR7 (Homo sapiens (Human), UniProt Q9NYK1); experiment: TLR7 inhibition reporter assay (HEK-Blue cells, SEAP reporter, gardiquimod stimulation); type: cell-based
human TLR8 = human TLR8 (Homo sapiens (Human), UniProt Q9NR97); experiment: TLR8 inhibition reporter assay (HEK-Blue cells, SEAP reporter, R848 stimulation);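 also: compounds tested from 0.05 nM to 50 µM, 22 h at 37 °C, SEAP measured with HEK-Blue Detection, inhibition relative to agonist plus DMSO versus a known inhibitor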
Chain of human TLR8 (Q9NR97 27-1041): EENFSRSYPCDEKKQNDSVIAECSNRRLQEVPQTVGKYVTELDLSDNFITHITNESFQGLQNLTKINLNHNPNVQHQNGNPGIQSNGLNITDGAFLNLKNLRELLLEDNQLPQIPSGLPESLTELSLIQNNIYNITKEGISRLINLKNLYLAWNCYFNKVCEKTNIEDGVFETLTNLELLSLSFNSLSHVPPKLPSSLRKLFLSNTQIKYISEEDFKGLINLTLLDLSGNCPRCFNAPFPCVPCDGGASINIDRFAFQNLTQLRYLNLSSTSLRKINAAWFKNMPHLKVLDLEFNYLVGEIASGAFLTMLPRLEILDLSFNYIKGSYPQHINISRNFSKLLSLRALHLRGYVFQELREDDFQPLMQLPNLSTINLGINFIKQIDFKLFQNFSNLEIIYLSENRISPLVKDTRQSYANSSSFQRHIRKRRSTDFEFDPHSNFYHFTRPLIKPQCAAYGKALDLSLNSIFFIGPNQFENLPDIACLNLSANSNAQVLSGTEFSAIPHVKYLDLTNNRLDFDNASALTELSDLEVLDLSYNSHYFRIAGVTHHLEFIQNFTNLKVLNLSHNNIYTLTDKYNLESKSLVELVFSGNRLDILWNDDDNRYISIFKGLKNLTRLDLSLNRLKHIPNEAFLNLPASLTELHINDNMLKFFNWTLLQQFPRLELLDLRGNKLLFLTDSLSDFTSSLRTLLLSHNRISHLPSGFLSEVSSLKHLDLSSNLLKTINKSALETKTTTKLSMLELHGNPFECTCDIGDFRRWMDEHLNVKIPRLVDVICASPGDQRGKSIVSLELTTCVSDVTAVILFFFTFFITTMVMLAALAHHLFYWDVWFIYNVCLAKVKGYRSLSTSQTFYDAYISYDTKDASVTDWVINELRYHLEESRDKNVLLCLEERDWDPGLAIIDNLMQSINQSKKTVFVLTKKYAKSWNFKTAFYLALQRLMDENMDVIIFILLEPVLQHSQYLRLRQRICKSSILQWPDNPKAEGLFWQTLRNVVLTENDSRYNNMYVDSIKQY

human TLR9 = human TLR9 (Homo sapiens (Human), UniProt Q9NR96); experiment: TLR9 inhibition reporter assay (HEK-Blue cells, SEAP reporter, ODN2006 stimulation);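 also: compounds tested over 0.05 nM to 50 µM, 22 h incubation, inhibition taken as SEAP signal drop from agonist plus DMSO wells toward a known inhibitor control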
Chain of human TLR9 (Q9NR96 26-1032): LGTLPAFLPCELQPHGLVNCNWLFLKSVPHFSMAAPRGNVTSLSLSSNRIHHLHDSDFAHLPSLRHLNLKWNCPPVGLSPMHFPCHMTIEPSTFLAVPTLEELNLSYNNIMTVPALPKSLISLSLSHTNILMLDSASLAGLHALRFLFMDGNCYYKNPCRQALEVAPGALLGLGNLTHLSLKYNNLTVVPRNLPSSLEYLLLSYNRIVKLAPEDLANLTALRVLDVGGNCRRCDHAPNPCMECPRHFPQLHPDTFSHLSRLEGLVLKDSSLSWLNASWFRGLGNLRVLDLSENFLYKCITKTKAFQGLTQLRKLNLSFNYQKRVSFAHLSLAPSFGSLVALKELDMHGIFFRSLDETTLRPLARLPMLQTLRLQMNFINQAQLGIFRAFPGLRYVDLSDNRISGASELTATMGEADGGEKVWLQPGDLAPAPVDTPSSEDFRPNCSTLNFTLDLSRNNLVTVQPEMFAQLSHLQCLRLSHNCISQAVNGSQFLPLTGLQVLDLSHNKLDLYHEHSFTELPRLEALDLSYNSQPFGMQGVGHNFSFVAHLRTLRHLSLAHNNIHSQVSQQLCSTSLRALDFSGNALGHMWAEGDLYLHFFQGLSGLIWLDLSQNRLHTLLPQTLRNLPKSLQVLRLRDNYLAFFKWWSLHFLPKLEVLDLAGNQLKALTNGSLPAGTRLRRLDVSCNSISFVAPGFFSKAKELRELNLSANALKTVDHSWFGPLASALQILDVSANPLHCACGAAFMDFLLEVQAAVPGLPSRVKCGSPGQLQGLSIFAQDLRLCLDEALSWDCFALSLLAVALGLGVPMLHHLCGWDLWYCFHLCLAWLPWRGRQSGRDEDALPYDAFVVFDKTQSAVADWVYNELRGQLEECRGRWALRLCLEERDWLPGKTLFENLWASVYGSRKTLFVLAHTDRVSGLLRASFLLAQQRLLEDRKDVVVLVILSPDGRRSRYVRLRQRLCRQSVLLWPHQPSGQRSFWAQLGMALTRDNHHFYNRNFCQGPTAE

[1] = HEK-Blue cells overexpressing human TLR7, gardiquimod 7.5 μM
[2] = read-out: TLR8 IC50, HEK-Blue cells overexpressing human TLR8, R848 15.9 μM
[3] = read-out: TLR9 IC50, HEK-Blue cells overexpressing human TLR9, ODN2006 5 nM
[4] = HEK-Blue cells, gardiquimod 7.5 μM
[5] = read-out: TLR8 IC50, HEK-Blue cells, R848 15.9 μM
[6] = read-out: TLR9 IC50, HEK-Blue cells, ODN2006 5 nM

Chain of human TLR7 (Q9NYK1 27-1049): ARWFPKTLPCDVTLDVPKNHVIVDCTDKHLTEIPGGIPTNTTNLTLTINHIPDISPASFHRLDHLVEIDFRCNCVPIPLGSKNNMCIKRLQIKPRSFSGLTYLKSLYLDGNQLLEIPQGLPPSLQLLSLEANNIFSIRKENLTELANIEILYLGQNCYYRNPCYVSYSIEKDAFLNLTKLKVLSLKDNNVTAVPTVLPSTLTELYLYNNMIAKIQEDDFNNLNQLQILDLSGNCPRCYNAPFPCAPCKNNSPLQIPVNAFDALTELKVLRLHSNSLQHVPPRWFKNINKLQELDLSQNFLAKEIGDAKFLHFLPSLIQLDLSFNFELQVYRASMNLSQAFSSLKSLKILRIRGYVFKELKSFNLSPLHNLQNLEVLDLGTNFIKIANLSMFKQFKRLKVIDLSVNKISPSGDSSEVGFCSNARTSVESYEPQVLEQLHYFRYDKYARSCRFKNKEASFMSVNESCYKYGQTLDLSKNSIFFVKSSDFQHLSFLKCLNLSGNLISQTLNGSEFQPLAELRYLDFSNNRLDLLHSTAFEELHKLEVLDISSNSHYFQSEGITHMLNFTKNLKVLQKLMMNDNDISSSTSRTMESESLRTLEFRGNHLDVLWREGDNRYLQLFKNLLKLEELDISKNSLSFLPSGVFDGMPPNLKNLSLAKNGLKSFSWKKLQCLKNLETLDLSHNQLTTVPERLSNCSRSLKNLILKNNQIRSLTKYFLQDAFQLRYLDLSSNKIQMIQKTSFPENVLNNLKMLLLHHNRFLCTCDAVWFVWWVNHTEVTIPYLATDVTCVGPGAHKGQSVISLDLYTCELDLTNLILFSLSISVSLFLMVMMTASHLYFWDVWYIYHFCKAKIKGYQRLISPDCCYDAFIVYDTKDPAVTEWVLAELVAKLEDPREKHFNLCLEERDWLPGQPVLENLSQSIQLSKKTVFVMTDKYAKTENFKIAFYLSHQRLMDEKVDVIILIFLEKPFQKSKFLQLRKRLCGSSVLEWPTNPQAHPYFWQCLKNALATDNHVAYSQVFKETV

| SMILES | IC50 (human TLR7; [1]) [µM] | IC50 (human TLR8; [2]) [µM] | IC50 (human TLR9; [3]) [µM] | IC50 (human TLR7; [4]) [µM] | IC50 (human TLR8; [5]) [µM] | IC50 (human TLR9; [6]) [µM] | IC50 (human TLR8; TLR8 IC50, HEK-Blue cells overexpressing human TLR8, R848 15.9 μM) [µM] | IC50 (human TLR9; TLR9 IC50, HEK-Blue cells overexpressing human TLR9, ODN2006 5 nM) [µM] |
| --- | --- | --- | --- | --- | --- | --- | --- | --- |
| Cc1cc(-c2[nH]c3ccc(C4CCN(CC(=O)N(C)C)CC4)cc3c2C(C)C)c(Cl)c(C)n1 [Example 644, 2-(4-(2-(3-chloro-2,6-dimethylpyridin-4-yl)-3-isopropyl-1H-indol-5-yl)piperidin-1-yl)-N,N-dimethylacetamide] | 0.0077 | 0.006 | 2.3 |  |  |  |  |  |
| Cc1cc(-c2[nH]c3cc(F)c(C4CCN(C5CCN(C(C)C)CC5)CC4)cc3c2C(C)C)ccn1 [Example 825, 6-fluoro-3-isopropyl-5-(1′-isopropyl-[1,4′-bipiperidin]-4-yl)-2-(2-methylpyridin-4-yl)-1H-indole] |  |  |  | 0.0065 | 0.0081 | 0.38 |  |  |
| Cc1cc(-c2[nH]c3ccc(C4CCN(Cc5ccn(C)n5)CC4)cc3c2C(C)C)c(C)cn1 [Example 689, 2-(2,5-dimethylpyridin-4-yl)-3-isopropyl-5-(1-((1-methyl-1H-pyrazol-3-yl)methyl)piperidin-4-yl)-1H-indole] | 0.0232 | 0.0008 | 1.44 |  |  |  |  |  |
| CCc1c(-c2ccnc(C#N)c2)[nH]c2ccc(C3CCNCC3)cc12 [Example 64, 4-(3-ethyl-5-(piperidin-4-yl)-1H-indol-2-yl)picolinonitrile] | 0.0956 | 0.0618 | 0.895 |  |  |  |  |  |
| Cc1cc(-c2[nH]c3ccc(C4CCN(C(=O)[C@@H](N)Cc5c[nH]cn5)CC4)cc3c2C(C)C)ccn1 [Example 574, (S)-2-amino-3-(1H-imidazol-4-yl)-1-(4-(3-isopropyl-2-(2-methylpyridin-4-yl)-1H-indol-5-yl)piperidin-1-yl)propan-1-one] | 0.0829 | 0.0156 | 0.851 |  |  |  |  |  |
| COc1cc(-c2[nH]c3ccc(C4CCNCC4)cc3c2C(C)C)c(F)cn1 [Example 47, 2-(5-fluoro-2-methoxypyridin-4-yl)-3-isopropyl-5-(piperidin-4-yl)-1H-indole] | 0.009 | 0.0362 | 3.5 |  |  |  |  |  |
| Cc1cc(-c2[nH]c3ccc(C4CCN(C(=O)CC(=O)Nc5nccs5)CC4)cc3c2C(C)C)cc(C)n1 [Example 142, 3-(4-(2-(2,6-dimethylpyridin-4-yl)-3-isopropyl-1H-indol-5-yl)piperidin-1-yl)-3-oxo-N-(thiazol-2-yl)propanamide] | 0.0182 | 0.0963 | > 50 |  |  |  |  |  |
| Cc1cnc(F)cc1-c1[nH]c2ccc(C3CCNCC3)cc2c1C(C)C [Example 28, 2-(2-fluoro-5-methylpyridin-4-yl)-3-isopropyl-5-(piperidin-4-yl)-1H-indole] | 0.0072 | 0.0339 | 3.43 |  |  |  |  |  |
| Cc1cc(-c2[nH]c3ccc(C4CCN(C(=O)c5cscn5)CC4)cc3c2C(C)C)ccn1 [Example 609, (4-(3-isopropyl-2-(2-methylpyridin-4-yl)-1H-indol-5-yl)piperidin-1-yl)(thiazol-4-yl)methanone] | 0.0382 | 0.214 | 21.5 |  |  |  |  |  |
| CCc1c(-c2ccnc(C)c2)[nH]c2ccc(C3CCN(C(=O)C4CCCNC4)CC3)cc12 (stereo not drawn) [Example 624, (4-(3-ethyl-2-(2-methylpyridin-4-yl)-1H-indol-5-yl)piperidin-1-yl)(piperidin-3-yl)methanone] | 0.128 | 0.0441 | 0.311 |  |  |  |  |  |
| Cc1cc(-c2[nH]c3ccc(C4CCN(CC5CC5)CC4)cc3c2C(C)C)c(C)cn1 [Example 871, 5-(1-(cyclopropylmethyl)piperidin-4-yl)-2-(2,5-dimethylpyridin-4-yl)-3-isopropyl-1H-indole] |  |  |  | 0.01 | 0.0032 | 1.84 |  |  |
| CC(=O)Nc1cnc(C)cc1-c1[nH]c2ccc(C3CCNCC3)cc2c1C(C)C [Example 34, N-(4-(3-isopropyl-5-(piperidin-4-yl)-1H-indol-2-yl)-6-methylpyridin-3-yl)acetamide] | 1.27 | 0.16 | 4.61 |  |  |  |  |  |

Results, then the compound that gave them:

| IC50 (human TLR7; [1]) [µM] | IC50 (human TLR8; [2]) [µM] | IC50 (human TLR9; [3]) [µM] | IC50 (human TLR7; [4]) [µM] | IC50 (human TLR8; [5]) [µM] | IC50 (human TLR9; [6]) [µM] | IC50 (human TLR8; TLR8 IC50, HEK-Blue cells overexpressing human TLR8, R848 15.9 μM) [µM] | IC50 (human TLR9; TLR9 IC50, HEK-Blue cells overexpressing human TLR9, ODN2006 5 nM) [µM] | SMILES |
| --- | --- | --- | --- | --- | --- | --- | --- | --- |
| 0.0216 | 0.143 | 16.1 |  |  |  |  |  | Cc1cc(-c2[nH]c3ccc(C4CCN(C(=O)Cn5nnc(N6CCOCC6)n5)CC4)cc3c2C(C)C)cc(C)n1 [Example 149, 1-(4-(2-(2,6-dimethylpyridin-4-yl)-3-isopropyl-1H-indol-5-yl)piperidin-1-yl)-2-(5-morpholino-2H-tetrazol-2-yl)ethan-1-one] |
| 0.0059 | 0.0509 | 0.25 |  |  |  |  |  | Cc1cc(-c2[nH]c3ccc(C4CCN(C(=O)CN5CCCCS5(=O)=O)CC4)cc3c2C(C)C)cc(C)n1 [Example 167, 1-(4-(2-(2,6-dimethylpyridin-4-yl)-3-isopropyl-1H-indol-5-yl)piperidin-1-yl)-2-(1,1-dioxido-1,2-thiazinan-2-yl)ethan-1-one] |
| 0.0063 | 0.0186 | 0.853 |  |  |  |  |  | Cc1cc(-c2[nH]c3ccc(C4CCN(CC(=O)N[C@H](CO)CC(C)C)CC4)cc3c2C(C)C)cc(C)n1 [Example 276, (S)-2-(4-(2-(2,6-dimethylpyridin-4-yl)-3-isopropyl-1H-indol-5-yl)piperidin-1-yl)-N-(1-hydroxy-4-methylpentan-2-yl)acetamide] |
| 0.0015 | 0.0071 | 0.213 |  |  |  |  |  | Cc1cc(-c2[nH]c3ccc(C4CCN(C(=O)CCN(C)CCO)CC4)cc3c2C(C)C)cc(C)n1 [Example 175, 1-(4-(2-(2,6-dimethylpyridin-4-yl)-3-isopropyl-1H-indol-5-yl)piperidin-1-yl)-3-((2-hydroxyethyl)(methyl)amino)propan-1-one] |
| 0.0026 | 0.0089 | 0.248 |  |  |  |  |  | Cc1cc(-c2[nH]c3ccc(C4CCN(CC(=O)N5CCC(F)CC5)CC4)cc3c2C(C)C)cc(C)n1 [Example 283, 2-(4-(2-(2,6-dimethylpyridin-4-yl)-3-isopropyl-1H-indol-5-yl)piperidin-1-yl)-1-(4-fluoropiperidin-1-yl)ethan-1-one] |
| 0.0114 | 0.0903 | 34.6 |  |  |  |  |  | CC(=O)N(C)CCC(=O)N1CCC(c2ccc3[nH]c(-c4cc(C)nc(C)c4)c(C(C)C)c3c2)CC1 [Example 134, N-(3-(4-(2-(2,6-dimethylpyridin-4-yl)-3-isopropyl-1H-indol-5-yl)piperidin-1-yl)-3-oxopropyl)-N-methylacetamide] |
| 0.0052 | 0.0219 | 1.36 |  |  |  |  |  | CCOCCNCC(=O)N1CCC(c2ccc3[nH]c(-c4cc(C)nc(C)c4)c(C(C)C)c3c2)CC1 [Example 349, 1-(4-(2-(2,6-dimethylpyridin-4-yl)-3-isopropyl-1H-indol-5-yl)piperidin-1-yl)-2-((2-ethoxyethyl)amino)ethan-1-one] |
| 0.0035 | 0.0144 | 0.317 |  |  |  |  |  | CN[C@@H](C)C(=O)N1CCC(c2ccc3[nH]c(-c4cc(C)nc(C)c4)c(C(C)C)c3c2)CC1 [Example 191, (S)-1-(4-(2-(2,6-dimethylpyridin-4-yl)-3-isopropyl-1H-indol-5-yl)piperidin-1-yl)-2-(methylamino)propan-1-one] |
| 0.0022 | 0.0186 | 0.705 |  |  |  |  |  | CCN(CCO)CC(=O)N1CCC(c2ccc3[nH]c(-c4cc(C)nc(C)c4)c(C(C)C)c3c2)CC1 [Example 397, 1-(4-(2-(2,6-dimethylpyridin-4-yl)-3-isopropyl-1H-indol-5-yl)piperidin-1-yl)-2-(ethyl(2-hydroxyethyl)amino)ethan-1-one] |
| 0.0015 | 0.0028 | 0.073 |  |  |  |  |  | COCCN1CCN(C(=O)CN2CCC(c3ccc4[nH]c(-c5cc(C)nc(C)c5)c(C(C)C)c4c3)CC2)CC1 [Example 265, 2-(4-(2-(2,6-dimethylpyridin-4-yl)-3-isopropyl-1H-indol-5-yl)piperidin-1-yl)-1-(4-(2-methoxyethyl)piperazin-1-yl)ethan-1-one] |
| 0.006 | 0.054 | 5.27 |  |  |  |  |  | Cc1cc(-c2[nH]c3ccc(C4CCN(C(=O)C5(N)CC5)CC4)cc3c2C(C)C)cc(C)n1 [Example 195, (1-aminocyclopropyl)(4-(2-(2,6-dimethylpyridin-4-yl)-3-isopropyl-1H-indol-5-yl)piperidin-1-yl)methanone] |
| 0.0139 | 0.036 | 1.3 |  |  |  |  |  | CCC(CC)NC(=O)CN1CCC(c2ccc3[nH]c(-c4cc(C)nc(C)c4)c(C(C)C)c3c2)CC1 [Example 220, 2-(4-(2-(2,6-dimethylpyridin-4-yl)-3-isopropyl-1H-indol-5-yl)piperidin-1-yl)-N-(pentan-3-yl)acetamide] |
| 0.0103 | 0.0313 | 0.88 |  |  |  |  |  | Cc1cc(-c2[nH]c3ccc(C4CCN(C(=O)CN5CC6CCC(C5)O6)CC4)cc3c2C(C)C)cc(C)n1 [Example 389, 2-(8-oxa-3-azabicyclo[3.2.1]octan-3-yl)-1-(4-(2-(2,6-dimethylpyridin-4-yl)-3-isopropyl-1H-indol-5-yl)piperidin-1-yl)ethan-1-one] |
| 0.0027 | 0.0131 | 0.266 |  |  |  |  |  | Cc1cc(-c2[nH]c3ccc(C4CCN(C(=O)C5CCN(C(C)C)CC5)CC4)cc3c2C(C)C)cc(C)n1 [Example 497, (4-(2-(2,6-dimethylpyridin-4-yl)-3-isopropyl-1H-indol-5-yl)piperidin-1-yl)(1-isopropylpiperidin-4-yl)methanone] |
| 0.0019 |  |  |  |  |  | 0.0141 | 0.602 | COCCN1CCN(CC(=O)N2CCC(c3ccc4[nH]c(-c5cc(C)nc(C)c5)c(C(C)C)c4c3)CC2)CC1 [Example 372, 1-(4-(2-(2,6-dimethylpyridin-4-yl)-3-isopropyl-1H-indol-5-yl)piperidin-1-yl)-2-(4-(2-methoxyethyl)piperazin-1-yl)ethan-1-one] |

From patent US10660877B2 (BRISTOL-MYERS SQUIBB COMPANY, priority 2016, dated 2020)
